Measured values reported in patent US20230132973A1, “DIHYDRO-SPIRO[INDOLINE-3:1'-iSOQUINOLIN]-2-ONES AS ANTIMALARIAL AGENTS” (The University of Buea, priority 2020, published 2023).
“Also recorded” adds a separate entry of the source. Where two headings read alike, the source gives them in different places. Values belong to the compound of their own block, whether it stands above or below them.

Tests used:
[1] = test system: CQ-sensitive 3D7 strain of P. falciparum; assay: SYBR green I-based parasite growth inhibition assay, 3D7 strain; format: cell-based, Plasmodium falciparum; details: for EC50: Plasmodium falciparum
[2] = test system: hemoglobin metabolism in P. falciparum ring and trophozoite stage parasites; assay: Effect on hemoglobin degradation (intraparasitic hemoglobin content); format: cell-based, Plasmodium falciparum; details: 10 μM, 24 h, relative to E64-treated cultures
Procedure: Owing to the fact that the DSIIQs are constructed from the THIQ pharmacophore of naphthylisoquinolines, which appear to target proteases involved in hemoglobin degradation, we assessed the effect of this DSIIQ on hemoglobin metabolism. Briefly, tightly synchronized ring and trophozoite stage parasites were treated with test compounds for 24 h followed by parasite isolation and quantification of the intraparasitic hemoglobin contents.
To investigate drug effects on hemoglobin degradation, early ring and mid-trophozoite stage parasites (1.5% hematocrit, 5% parasitemia) were co-cultured with the test compounds or experimental controls (0.1% DMSO, chloroquine, artemisinin NITD609 and E64) at a final concentration of 10 μM. The cultures were incubated at 37° C. and 5% CO2 for 24 h. Following incubation, inhibitors were removed by centrifugation at 1800 rpm for 5 min. The pellets were washed in an equal volume of 1×PBS and re-suspended in same volume of 0.1% saponin (in 1×PBS) for 3 min. Isolated parasites were pelleted at 2500 rpm for 5 min and washed twice in an equal volume of 1×PBS. The resulting parasite pellets were permeabilized by treatment in 20 μL of 1% Triton X-100 (in 1×PBS) for 5 min. Intraparasitic hemoglobin content was measured at 550 nm using a Nanodrop spectrophotometer, and folds increase in intra-parasite hemoglobin content was calculated relative to the E64-treated controls.

[3] = test system: asexual blood stages of P. falciparum; assay: Life cycle stage specific action by microscopy of Giemsa-stained thin smears; format: cell-based, Plasmodium falciparum; details: 10 μM, 24 h; for stage specific action on asexual blood stages (ring, trophozoite, schizont): treated at early ring, mid-trophozoite or mid-schizont; for vacuolation in treated parasites: Giemsa-stained thin smears
Procedure: The life cycle stage specific action of (±)-moxiquindole was determined by treatment of parasites at different time points followed by microscopic analysis of Giemsa-stained thin blood smears. Stage proportions were calculated for each asexual parasite stage in the drug treated wells relative to the same stage in the negative control wells.
The inhibitory effects of active compounds or reference drugs on parasite development and schizont rupture were determined by quantitative light microscopy as previously described (Lee et al., 2015). Briefly, synchronized cultures (1.5% hematocrit and 3% parasitemia) at different time-points (early rings, mid trophozoites and schizonts) were treated with either test compound or controls at 10 μM final concentration for 24 h under regular culture conditions. Following treatment, Giemsa-stained thin smears were prepared and parasites were counted in 1,000 erythrocytes per treatment. Stage proportions in test wells relative to solvent control wells were calculated and used to assess the in vitro effects of each compound on trophozoites and schizont development as well as merozoite egress and invasion.

[4] = test system: P. chabaudi-infected mice; assay: Peter's four-day suppressive test (chemosuppressive activity); format: in vivo, Swiss albino mice
Procedure: Following the encouraging in vitro antiplasmodial activities and cytotoxicity profiles reported above, as well as the ADMET properties of the primary and secondary hits identified in this study, studies were carried out to assess the in vivo efficacy of these compounds in laboratory mice. Chemosuppressive potentials were assessed using the Peter's four-day test whereas the ability of each compound to cure an established plasmodial infection was determined using the Rane's test. To assess the in vivo chemosuppressive potential of the compounds, groups of P. chabaudi-infected mice were treated by ip injection for 3 days following infection using fixed doses of 0.03, 0.3, 3, 10, or 30 mg/kg for each compound. The percent suppression of parasite growth in treated groups was calculated relative to the control group and the growth inhibition curves plotted.
Eight-week old male Swiss albino mice weighing approximately 23±3 g were housed in cages and maintained in a well-ventilated room under standard environmental conditions of temperature at 22-24° C., under a 12 h dark-light cycle, with food and water provided ad libitum.
The animals were allowed one week acclimation before commencement of the study. Three (3) mice were infected with stocked blood containing Plasmodium chabaudi parasites and used as donors. In brief, frozen blood containing the sulfadoxine/pyrimethamine resistant P. c. chabaudi (AS(50S/P) parasites was thawed and about 200 μL parasites were injected intra-peritoneally (i.p) into each of the three mice and parasitemia monitored through blood smear until a 20% threshold was reached. These infected animals then served as donors to the experimental animals. Ethical approval for the study was obtained from the University of Douala Institutional Review Board (N^oIEC-UD/1146/09/2017/A).
In vivo efficacies were conducted following a modification of the Peter's four-day suppressive test as previously described (Lee et al., 2014, Tarkang et al., 2014). Briefly, following parasite passage in donor mice, the mice were euthanized using diethyl ether and P. c. chabaudi infected blood was obtained by cardiac puncture and placed into heparinized tubes. The blood was then diluted with phosphate buffered saline (PBS) and immediately used to infect the experimental mice. Mice were randomly divided into seven (7) groups of 3 animals and each mouse was injected with 1×10^7 infected erythrocytes intraperitoneally (Day 0). The mice were kept for 24 hours to establish infection and Giemsa thin blood smears were prepared to quantify parasites (Day 1). Thereafter, groups 1, 2, 3, 4 and 5 were treated with compounds dissolved in 1×PBS, intraperitoneally at dosages of 30, 10, 3, 0.3 and 0.03 mg/kg body weight, respectively, while groups 6 and 7 were treated with vehicle or chloroquine at 10 mg/kg, respectively for three consecutive days (Day 1-Day 3). Twenty-four (24) and ninety-six (96) hours post-infection, thin blood smears were prepared from each animal with blood obtained from the tail vein, fixed in methanol and stained with 10% Giemsa.
Parasitemia was determined by light microscopy using a 100× objective lens and the following equation: […]
Average percentage chemosuppression was calculated as
Where A is mean parasitemia in negative control and B is mean parasitemia in test group

[5] = test system: vacuolar lipid dynamics in P. falciparum; assay: Effect on vacuolar lipid dynamics (Oil Red O staining); format: cell-based, Plasmodium falciparum; details: trophozoite stage parasites, 24 h
Procedure: Because cellular vacuolation may result from perturbation of intracellular lipid content, we investigated the effect of (±)-moxiquindole on vacuolar lipid dynamics using fluorescent Oil red O as lipid stain.
The effect of the compounds on intracellular lipid dynamics was assessed by measurement of intracellular lipid content using Oil Red O. Briefly, early rings or late trophozoite stage parasites (30 hpi) were treated with the compounds or controls for 24 h under regular culture conditions. Following treatment, inhibitors were removed by centrifugation at 2500 rpm for 5 min and pellets were washed in equal volumes of 1×PBS. The parasites were fixed with 4% paraformaldehyde for 30 min at room temperature and pelleted at 2500. Three volumes of Oil Red O (ORO) stock solution (5 mg/mL in 100% isopropanol) were diluted in two volumes of distilled water and filtered prior to use. About 100 μL of the ORO were added to parasite pellets in the tube and incubated for 30 minutes. Parasites were pelleted and washed twice in distilled water. Thereafter, parasites were deposited on pre-cleaned coverslips and air dried. Dried coverslips were mounted in DAPI antifade reagent onto cleaned slides, air dried and viewed under a 100× oil immersion lens and images acquired using a Leica DM1000 fluorescence microscope suite (LAS version 4.5).

[6] = test system: Malaria parasites (ring-stage parasitized erythrocytes); assay: Drug-combination (drug-drug interaction) studies, SYBR-Green I; format: cell-based, Plasmodium falciparum; details: in combination with artemisinin
Procedure: In view of the overlapping modes of action between the hybrids and some known antimalarial drugs in terms of targeted cellular processes, we investigated the interaction between these compounds at variable combination ratios. Malaria parasites were continuously cultured and synchronized as earlier described prior to the assay.
Briefly, two-fold drug dilutions were prepared using a variable potency ratio drug combination approach, starting at 5EC50A: 0EC50B to 0EC50A: 5EC50B in serum-free medium, where A and B represent the different partner molecules.
The test was run for 72 h and terminated when the untreated parasites were at the early trophozoite stage of the second cycle. Parasite viability was assessed by the SYBR-Green I fluorescence-based assay as earlier described. Dose-response curves and EC50 values of each combination and drug alone were obtained using GraphPad Prism v.5.0 and Microsoft Excel was used to calculate mean EC50 values and the standard error of the mean.

SMILES: COc1cc2c(cc1OC)C1(NC(C)C2)C(=O)Nc2ccc(Cl)cc21 (racemic) [Compound 11, 5-chloro-6′,7′-dimethoxy-3′-methyl-3′,4′-dihydro-2′H-spiro[indoline-3,1′-isoquinolin]-2-one]
times more potent than (±)-moxiquindole ([1]; Pf 3D7): 80 times
fold more active than the primary hit (±)-moxiquindole ([1]; Pf 3D7 EC50 ratio): 77 fold
EC50 ([1]; Pf 3D7, 72 h, read-out: EC50): 24 nM
intraparasitic hemoglobin content / accumulation [2]: accumulation of intra-parasitic hemoglobin
stage specific action on asexual blood stages (ring, trophozoite, schizont) [3]: exhibits inhibitory activities against ring-to-trophozoite development, trophozoite-to-schizont development and schizont rupture
vacuolation in treated parasites [3]: induced vacuolation in parasites
suppression of parasitemia ([4]; 0.3 mg/kg ip): slight advantage over (±)-moxiquindole
suppression of parasitemia ([4]; 3.0 mg/kg ip): 98%
ED50 ([4]; Mus musculus, ip, 72 h, read-out: suppressive ED50): 0.049 mg/kg

SMILES: CC(C)C[C@H](NC(=O)[C@H]1O[C@@H]1C(=O)O)C(=O)NCCCCN=C(N)N (relative stereo) [Compound E64, L-trans-epoxysuccinyl-leucylamido-(4-guanidino)]
intraparasitic hemoglobin content / accumulation [2]: minimal effect on hemoglobin degradation
neutral lipid bodies / vacuolar lipid uptake (Oil red O) [5]: no effect on vacuolar lipid uptake
stage specific action on asexual blood stages (ring, trophozoite, schizont) [3]: only inhibiting schizont accumulation

SMILES: C[C@@H]1CC[C@H]2[C@@H](C)C(=O)O[C@@H]3O[C@@]4(C)CC[C@@H]1[C@]32OO4 [Artemisinin, artemisinin]
EC50 ([1]; Pf 3D7, 72 h, read-out: EC50): 15.9 nM
neutral lipid bodies / vacuolar lipid uptake (Oil red O) [5]: no effect on vacuolar lipid uptake
stage specific action on asexual blood stages (ring, trophozoite, schizont) [3]: high proportions of the treated parasite stage at each treatment time-point; also recorded: exhibits inhibitory activities against ring-to-trophozoite development, trophozoite-to-schizont development and schizont rupture

melting point: 174 to 175 °C
SMILES: COc1cc2c(cc1OC)C1(NCC2)C(=O)Nc2ccc([N+](=O)[O-])cc21 (stereo not drawn) [Compound 8e, 6′,7′-dimethoxy-5-nitro-3′,4′-dihydro-2′H-spiro[indoline-3,1′-isoquinolin]-2-one]

melting point: 186 to 187 °C
SMILES: COc1cc2c(cc1OC)C1(NCC2)C(=O)Nc2ccc(N)cc21 (stereo not drawn) [Compound 8f, 5-amino-6′,7′-dimethoxy-3′,4′-dihydro-2′H-spiro[indoline-3,1′-isoquinolin]-2-one]

melting point: 220 to 221 °C
SMILES: COc1cc2c(cc1OC)C1(NCC2)C(=O)Nc2cc(F)c(F)cc21 (stereo not drawn) [Compound 8g, 5,6-difluoro-6′,7′-dimethoxy-3′,4′-dihydro-2′H-spiro[indoline-3,1′-isoquinolin]-2-one]

SMILES: COc1cc2c(cc1OC)C1(NCC2)C(=O)N(Cc2ccc(Br)cc2)c2ccc(Cl)cc21 (stereo not drawn) [Compound 8k]
parasite growth inhibition in primary assays ([1]; primary screening at 10 μM, Pf 3D7, 72 h): ~52%

melting point: 98 to 99 °C
SMILES: COc1cc2c(cc1OC)C1(NCC2)C(=O)Nc2ccc(F)cc21 (stereo not drawn) [Compound 8o, 5-fluoro-6′,7′-dimethoxy-3′,4′-dihydro-2′H-spiro[indoline-3,1′-isoquinolin]-2-one]

SMILES: C[C@H]1Cc2c([nH]c3cc(Cl)c(F)cc23)[C@@]2(N1)C(=O)Nc1ccc(Cl)cc12 [NITD609]
stage specific action on asexual blood stages (ring, trophozoite, schizont) [3]: exhibits inhibitory activities against ring-to-trophozoite development, trophozoite-to-schizont development and schizont rupture
vacuolation in treated parasites [3]: induced vacuolation in parasites

SMILES: CCN(CC)CCCC(C)Nc1ccnc2cc(Cl)ccc12 (stereo not drawn) [chloroquine]
EC50 ([1]; 3D7, 72 h): 13.9 nM
combination index (CI) [6]: 1.183
neutral lipid bodies / vacuolar lipid uptake (Oil red O) [5]: devoid of neutral lipid bodies
stage specific action on asexual blood stages (ring, trophozoite, schizont) [3]: rapid accumulation of early rings and trophozoites but not schizonts; also recorded: exhibits inhibitory activities against ring-to-trophozoite development, trophozoite-to-schizont development and schizont rupture
suppression of parasitemia ([4]; 10 mg/kg, compared with 98% by test compounds at 3.0 mg/kg): comparable level of suppression of parasitemia
